This is an account of results in patent US8580957B2, “Thetrahydroquinolines derivatives as bromodomain inhibitors” (GlaxoSmithKline LLC, priority 2009, dated 2013).

Where a name gives a salt, the structure may show the parent alone.

The subject of one data set is TNFα levels in LPS stimulated whole blood. The data set can be described thus: LPS Stimulated Whole Blood Measuring TNFα Levels Assay. It is filed as cell-based. The conditions noted are these: LPS 200 ng/ml, 24 hours, read-out: pIC50 (TNFα levels) (converted). The procedure: LPS Stimulated Whole Blood Measuring TNFα Levels Assay
Activation of monocytic cells by agonists of toll-like receptors such as bacterial lipopolysaccharide (LPS) results in production of key inflammatory mediators including TNFα. Such pathways are widely considered to be central to the pathophysiology of a range of auto-immune and inflammatory disorders.
(§1) Compounds to be tested are diluted to give a range of appropriate concentrations and 1 ul of the dilution stocks is added to wells of a 96 plate. Following addition of whole blood (130 ul) the plates are incubated at 37 degrees (5% CO2) for 30 min before the addition of 10 ul of 2.8 ug/ml LPS, diluted in complete RPMI 1640 (final concentration=200 ng/ml), to give a total volume of 140 ul per well. After further incubation for 24 hours at 37 degrees, 140 ul of PBS are added to each well. The plates are sealed, shaken for 10 minutes and then centrifuged (2500 rpm×10 min). 100 ul of the supernatant are removed and TNFα levels assayed by immunoassay (typically by MesoScale Discovery technology) either immediately or following storage at −20 degrees. Dose response curves for each compound was generated from the data and an IC50 value was calculated.
`CC(=O)N1c2ccc(-c3ccc(CN4CCCCC4)cc3)cc2[C@H](Nc2ccccc2)C[C@@H]1C` [Example 164, (2S,4R)-1-Acetyl-2-methyl-N-phenyl-6-[4-(1-piperidinylmethyl)phenyl]-1,2,3,4-tetrahydro-4-quinolinamine]: the IC50 was not above 10 µM.

For the compound `CC(=O)N1c2ccc(-c3ccc(CN4CCCCC4)cc3)cc2[C@@H](Nc2ccccn2)C[C@H]1C` (racemic) [Example 133, (cis)-1-Acetyl-2-methyl-6-[4-(1-pipendinylmethyl)phenyl]-N-2-pyridinyl-1,2,3,4-tetrahydro-4-quinolinamine formate salt], the IC50 was not above 10 µM. `CC(=O)N1c2ccc(-c3ccc(CN4CCCCC4)cc3)cc2[C@@H](Nc2ccc(C(F)(F)F)cn2)C[C@H]1C` (racemic) [Example 134, (cis)-1-Acetyl-2-methyl-6-[4-(1-piperidinylmethyl)phenyl]-N-[5-(trifluoromethyl)-2-pyridinyl]-1,2,3,4-tetrahydro-4-quinolinamine formate salt]: the IC50 is not above 10 µM.

With `CC(=O)N1c2ccc(-c3ccc(CN4CCCCC4)cc3)cc2[C@@H](Nc2ccc(F)cn2)C[C@H]1C` (racemic) [Example 137, (cis)-1-Acetyl-N-(5-fluoro-2-pyridinyl)-2-methyl-6-[4-(1-piperidinylmethyl)phenyl]-1,2,3,4-tetrahydro-4-quinolinamine formate salt], the IC50 is not above 10 µM.

Consider `CC[C@@H]1C[C@H](Nc2ccccc2)c2cc(-c3ccc(C(=O)O)cc3)ccc2N1C(C)=O` (racemic) [Example 162, 4-[(cis)-1-Acetyl-2-ethyl-4-(phenylamino)-1,2,3,4-tetrahydro-6-quinolinyl]benzoic acid], for which the IC50 is not above 10 µM. On the same count and under the same terms, in the case of `CC(=O)N1c2ccc(-c3ccc(C(=O)O)cc3)cc2[C@@H](Nc2cccc(F)c2)C[C@H]1C` [Example 179] it was not above 10 µM. The same measure, in the same setting: in the case of `CC(=O)N1c2ccc(-c3ccc(N)nc3)cc2[C@@H](Nc2ccccc2)C[C@H]1C` (racemic) [Example 132, (cis)-1-Acetyl-6-(6-amino-3-pyridinyl)-2-methyl-N-phenyl-1,2,3,4-tetrahydro-4-quinolinamine hydrochloride] it was not above 10 µM.

System in the next data set: not given
Assay: not given
Details: not given
As a reminder, the melting point is the temperature, or range, at which the solid turns liquid. Regarding `CC(=O)N1c2ccc(-c3ccc(-c4nn[nH]n4)cc3)cc2[C@@H](Nc2ccc(Cl)cc2)C[C@H]1C` (stereo in doubt) [Example 121, 1-Acetyl-N-(4-chlorophenyl)-2-methyl-6-[4-(1H-tetrazol-5-yl)phenyl]-1,2,3,4-tetrahydro-4-quinolinamine], the melting point was determined as 250 °C. With `CC(=O)N1c2ccc(-c3ccc(CN4CCCCC4)cc3)cc2[C@@H](Nc2ccc(F)cc2)C[C@H]1C` (racemic) [Example 11, 1-Acetyl-2-methyl-N-(4-fluorophenyl)-6-[4-(1-piperidinylmethyl)phenyl]-1,2,3,4-tetrahydro-4-quinolinamine], the melting point worked out at 106 °C. `CCNC(=O)c1ccc(-c2ccc3c(c2)[C@@H](Nc2ccc(Cl)cc2)C[C@@H](C)N3C(C)=O)cc1` (stereo in doubt) [Example 101, 4-{1-Acetyl-4-[(4-chlorophenyl)amino]-2-methyl-1,2,3,4-tetrahydro-6-quinolinyl}-N-ethylbenzamide] came in with a melting point of 134 °C. For the compound `CC(=O)N1c2ccc(-c3ccc(CN(C)C)cc3)cc2[C@@H](Nc2ccccc2)C[C@H]1C` (racemic) [Example 35, 1-acetyl-6-{4-[(dimethylamino)methyl]phenyl}-2-methyl-N-phenyl-1,2,3,4-tetrahydro-4-quinolinamine], the melting point came to 90 °C. `CCOC(=O)c1ccc(-c2ccc3c(c2)[C@@H](Nc2ccc(Cl)cc2)C[C@@H](C)N3C(C)=O)cc1` (stereo in doubt) [Example 119, Ethyl 4-{1-acetyl-4-[(4-chlorophenyl)amino]-2-methyl-1,2,3,4-tetrahydro-6-quinolinyl}benzoate]: the melting point stood at 114 °C.

For the next data set, the system named is LPS induced IL-6 secretion from whole blood. As to the kind of experiment: Measurement of LPS Induced IL-6 Secretion from Whole Blood. It counts as cell-based. Particulars: LPS 200 ng/ml, 24 hours, read-out: pIC50 (IL-6 levels) (converted). The procedure:
Measurement of LPS Induced IL-6 Secretion from Whole Blood
Activation of monocytic cells by agonists of toll-like receptors such as bacterial lipopolysaccharide (LPS) results in production of key inflammatory mediators including IL-6. Such pathways are widely considered to be central to the pathophysiology of a range of auto-immune and inflammatory disorders.
as §1, with “concentrations of which” for “concentrations and”, “the diluted” for “the dilution”, “to” for “to wells of”, “96 well” for “96”, “and IL-6” for “and TNFα”, “degrees. Concentration” for “degrees. Dose”
Consider `CC(=O)N1c2ccc(-c3ccc(CN4CCCCC4)cc3)cc2[C@H](Nc2ccccc2)C[C@@H]1C` [Example 164, (2S,4R)-1-Acetyl-2-methyl-N-phenyl-6-[4-(1-piperidinylmethyl)phenyl]-1,2,3,4-tetrahydro-4-quinolinamine], for which the IC50 was not above 10 µM. Turning to `CC(=O)N1c2ccc(-c3ccc(CN4CCCCC4)cc3)cc2[C@@H](Nc2ccc(F)cn2)C[C@H]1C` (racemic) [Example 137, (cis)-1-Acetyl-N-(5-fluoro-2-pyridinyl)-2-methyl-6-[4-(1-piperidinylmethyl)phenyl]-1,2,3,4-tetrahydro-4-quinolinamine formate salt], the IC50 is not above 10 µM.
